Test results from PMC2939296 (Bioorganic & medicinal chemistry letters, 2010).

Key:
Human MIF = target: T1, Human MIF (Homo sapiens, UniProt P14174); conditions: cited from earlier work
T1 sequence (P14174 2-115 limits assumed): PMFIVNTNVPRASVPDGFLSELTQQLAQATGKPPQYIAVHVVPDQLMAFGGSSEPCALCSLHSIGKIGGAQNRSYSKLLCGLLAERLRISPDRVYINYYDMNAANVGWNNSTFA

rh-MIF = target: T2, rh-MIF (Homo sapiens, UniProt P14174); test: Mass spectrometry; conditions: 30 μM rh-MIF plus 30 μM compound, 1 hr at room temperature in the dark
T2 sequence (P14174 2-115 limits assumed): T1 sequence (P14174 2-115 limits assumed)

MIF-CD74 = target: T3, MIF-CD74 (Homo sapiens, UniProt P14174); conditions: cited from earlier work
T3 sequence (P14174 2-115 limits assumed): T1 sequence (P14174 2-115 limits assumed)

Structure (SMILES): Cc1ccc2oc(=O)n(Cc3ccccc3)c2c1 [Cp 1]
- mode of inhibition of tautomerase activity (Michaelis-Menten analyses) (Human MIF): competitive inhibitor

Structure (SMILES): Ic1cc(-c2ccccc2)ncn1 [Cp 4-IPP, 4-iodo-6-phenylpyrimidine]
- covalent adduct with MIF by mass spectrometry (rh-MIF): appearance of the covalent adduct at the mass of MIF + ca. 155 Da

Structure (SMILES): Cc1ccc2oc(=O)n(Cc3cccc(O)c3)c2c1 [Cp 5]
- covalent adduct with MIF by mass spectrometry (rh-MIF): no additional peaks emerged

Structure (SMILES): CC(=O)N=C1C=CC(=O)C=C1 [NAPQI]
- effect on MIF tautomerase activity (Human MIF): decreases
- effect on MIF receptor binding activity (MIF-CD74): decreases
